The structures appear in SMILES notation. Bounds are passed on as bounds.

DC50 data for twelve compounds are collected here from US20250388565A1, “ESTROGEN RECEPTOR ALPHA DEGRADERS AND METHODS OF USE THEREOF” (Relay Therapeutics, Inc., priority 2022, published 2025).

The target of the assay is T1, ERα protein (HiBiT-tagged) in ESR1_HiBiT KI MCF7 cells (Homo sapiens, UniProt P03372).
T1 sequence (P03372 1-595): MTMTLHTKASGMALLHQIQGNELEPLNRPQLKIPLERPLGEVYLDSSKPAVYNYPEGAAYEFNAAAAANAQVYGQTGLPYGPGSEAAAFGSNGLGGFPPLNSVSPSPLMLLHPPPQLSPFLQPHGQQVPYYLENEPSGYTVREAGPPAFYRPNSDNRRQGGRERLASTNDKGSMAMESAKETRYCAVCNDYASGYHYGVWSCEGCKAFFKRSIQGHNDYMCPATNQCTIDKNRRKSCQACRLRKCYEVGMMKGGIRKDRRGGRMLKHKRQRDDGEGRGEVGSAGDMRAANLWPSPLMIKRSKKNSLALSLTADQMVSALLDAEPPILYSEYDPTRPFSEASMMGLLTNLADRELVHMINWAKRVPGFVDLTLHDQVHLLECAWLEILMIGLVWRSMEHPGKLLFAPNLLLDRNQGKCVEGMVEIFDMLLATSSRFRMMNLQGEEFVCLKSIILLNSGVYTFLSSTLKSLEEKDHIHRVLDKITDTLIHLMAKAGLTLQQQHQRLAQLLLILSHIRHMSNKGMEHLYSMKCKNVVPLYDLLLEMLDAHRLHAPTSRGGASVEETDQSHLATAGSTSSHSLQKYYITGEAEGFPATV
Nature of the assay: Nano Glo HiBiT Lytic Degradation Assay. Type of assay: cell-based. To be noted: 6 hours with compound, 14-point dose response 1:3, bell-shape curve fit, half-maximal effect of first Hill model, read-out: MCF7 ESR1 HiBiT - (DC50). Here is the method: Selected compounds of the present disclosure were tested in a Nano Glo HiBiT Lytic Degradation Assay to measure the level of ERα protein degradation in MCF7 cells.
Cell culture: ESR1_HiBiT KI MCF7 cells were maintained in growth media without antibiotics. Cells were maintained in exponential growth phase, between 40% and 90% confluency.
Cell seeding: Cells were counted using a Vi-Cell and seeded in a 384-well flat-bottom microplate (cell culture-treated) at 4000 cells/well in 25 μL of growth medium using a BioTek MultiFlo Multimode Dispenser. Plates were incubated for 24 h at 37° C., 5% CO2, >95% relative humidity.
Compound preparation: Compounds were screened as 14-point dose response curves 1:3 dilutions. DMSO is used as the vehicle control and all wells were normalized to the same final DMSO concentration (0.1% v/v). Compounds were dosed using an Echo Acoustic Liquid Handler, 25 nL of 1000× (10 mM top concentration) DMSO stock/well. Cells were incubated with compounds for 6 hours at 37° C., 5% CO2, >95% relative humidity. Each compound was run in duplicate.
Nano Glo HiBiT Lytic Degradation Assay: HiBiT-tagged ERα protein levels were quantified using a Nano Glo HiBiT Lytic Degradation Assay following the manufacturer's protocol. Briefly, the Nano-Glo® HiBiT Lytic Reagent was prepared by diluting the LgBiT Protein reagent (1:100) and the Nano-Glo® HiBiT Lytic Substrate (1:50) into Nano-Glo® HiBiT Lytic Buffer at room temperature. The 384-well microplate were equilibrated to room temperature and 25 μL of Nano-Glo® HiBiT Lytic Reagent was added to each well. Samples were mixed by placing the 384-well microplate on an orbital shaker for 10 minutes. Luminescence was measured using an EnVision 2105 Multimode Plate Reader.
Data processing and analysis: Background signal (wells containing growth medium without cells) was subtracted from individual relative light units (RLU) values and the resulting values were normalized to the DMSO control well values. Dose responses were analyzed with Genedata Screener® using a bell-shape curve fit and the concentrations corresponding to the half-maximal effect of the first Hill model were used as DC50 values.
Background: The HiBiT peptide binds its large partner to form an active luciferase.
As a reminder, the DC50 is the midpoint of the concentration-degradation curve. `[2H]c1c([2H])c([2H])c([C@@H]2CC(F)(F)c3cc(O)ccc3[C@@H]2c2ccc(N3CCC(CN4CCN(c5ccc6c(c5)CN([C@H]5CCC(=O)NC5=O)C6=O)CC4)CC3)cc2)c([2H])c1[2H]` [Compound I-336, (S)-3-(5-(4-((1-(4-((1S,2R)-4,4-difluoro-6-hydroxy-2-(phenyl-d5)-1,2,3,4-tetrahydronaphthalen-1-yl)phenyl)piperidin-4-yl)methyl)piperazin-1-yl)-1-oxoisoindolin-2-yl)piperidine-2,6-dione]: the DC50 is 15 nM.
Consider `Cn1nc(C2CCC(=O)NC2=O)c2ccc(N3CCN(CC4CCN(c5ccc([C@@H]6c7ccc(O)cc7C(F)(F)C[C@@H]6c6ccccc6)cc5)CC4)CC3)cc21` (single isomer, unassigned) [Compound I-297], for which the DC50 came to 0.74 nM.
Next, `C[C@@]1(N2Cc3cc(N4CCN(CC5CCN(c6ccc([C@@H]7c8ccc(O)cc8CC[C@@H]7c7ccccc7)cc6)CC5)CC4)ccc3C2=O)CCC(=O)NC1=O` (single isomer, unassigned) [II-58]: not below 10000 nM; `O=C1CC[C@H](N2Cc3cc(N4CCN(C[C@@H]5CCCN(c6ccc([C@@H]7c8ccc(O)cc8CC[C@@H]7c7ccccc7)cc6)C5)CC4)ccc3C2=O)C(=O)N1` (single isomer, unassigned) [II-20]: not below 10000 nM; `O=C1CC[C@H](N2Cc3cc(N4CCN(CC5CCN(c6ccc([C@H]7c8ccc(O)cc8CC[C@H]7C7=CCCCC7)cc6)CC5)CC4)ccc3C2=O)C(=O)N1` (single isomer, unassigned) [Compound I-416]: 0.44 nM.
The result for `O=C1CC[C@H](N2Cc3cc(N4CCN(CC5CCN(c6ccc([C@H]7c8ccc(O)cc8CO[C@H]7c7ccc(C(F)(F)F)cc7)cc6)CC5)CC4)ccc3C2=O)C(=O)N1` (single isomer, unassigned) [Compound I-56] reads 7.75 nM; that for `O=C1CC[C@H](N2Cc3cc(N4CCN(CC5CCN(c6ccc([C@@H]7c8ccc(O)cc8C(F)(F)C[C@@H]7C7CCCC7)cc6)CC5)CC4)ccc3C2=O)C(=O)N1` [Compound I-198, (S)-3-(5-(4-((1-(4-((1R,2R)-2-cyclopentyl-4,4-difluoro-6-hydroxy-1,2,3,4-tetrahydronaphthalen-1-yl)phenyl)piperidin-4-yl)methyl)piperazin-1-yl)-1-oxoisoindolin-2-yl)piperidine-2,6-dione], 0.93 nM; that for `O=C1CC[C@H](N2Cc3cc(N4CCN(CC5CCN(c6ccc(C7c8ccc(O)cc8CCC7C7CCCCC7)cn6)CC5)CC4)ccc3C2=O)C(=O)N1` (stereo in doubt) [Compound I-155, (S)-3-(5-(4-((1-(5-((1R,2S)-2-cyclohexyl-6-hydroxy-1,2,3,4-tetrahydronaphthalen-1-yl)pyridin-2-yl)piperidin-4-yl)methyl)piperazin-1-yl)-1-oxoisoindolin-2-yl)piperidine-2,6-dione], 1 nM.
The result for `C[C@H]1OC2(CCCCC2)[C@H](c2ccc(N3CCC(CN4CCN(c5ccc6c(c5)CN([C@H]5CCC(=O)NC5=O)C6=O)CC4)CC3)cc2)c2ccc(O)cc21` (single isomer, unassigned) [Compound I-269] reads 6 nM; that for `Cn1ccc([C@@H]2CCc3cc(O)ccc3[C@@H]2c2ccc(N3CCC(CN4CCN(c5ccc6c(c5)CN([C@H]5CCC(=O)NC5=O)C6=O)CC4)CC3)cc2)n1` [Compound I-31], not below 10000 nM.
As for `O=C1CCC(N2Cc3cc(N4CCN(CC5CCN(c6ccc([C@@H]7c8ccc(O)cc8CC[C@@H]7c7ccccc7)cc6)CC5)CC4)c(F)cc3C2=O)C(=O)N1` (single isomer, unassigned) [II-19], the DC50 was not below 10000 nM.
Next, `Cc1cc(F)cc([C@@H]2OCc3cc(O)ccc3[C@@H]2c2ccc(N3CCC(CN4CCN(c5ccc6c(c5)CN([C@H]5CCC(=O)NC5=O)C6=O)CC4)CC3)cc2)c1` [Compound I-378, (S)-3-(5-(4-((1-(4-((3R,4S)-3-(3-fluoro-5-methylphenyl)-7-hydroxyisochroman-4-yl)phenyl)piperidin-4-yl)methyl)piperazin-1-yl)-1-oxoisoindolin-2-yl)piperidine-2,6-dione]: not below 10000 nM.
